# According to US12391737B2, “Soluble NPY2 receptor agonists” (Boehringer Ingelheim International GmbH, priority 2020, dated 2025):
# *1 amine or outer side, *2 acyl side, *3 side chain or, on linkers, in order; H or OH if unused. Where a SMILES comes first, the peptide text is derived from it. Side-chain parts run from the residue outwards. The star is where a group is joined. C18 diacid = O=C(O)CCCCCCCCCCCCCCCCC(=O)*; γGlu = O=C(O)[C@H](CCC(=O)[*:2])N[*:1]; Isovaleryl = CC(C)CC(=O)*; Ahx = NCCCCCC(=O)O
# Legend:
# Solubility determination = details: for Sol6: pH 6; for Sol7: pH 7
# Procedure, shortened: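 Shake-flask style: 10 mg/ml peptide (TFA salt), 0.1 M sodium diphosphate pH 6.4/7.0, 600 rpm, 2 h, RT; filter; dilute 1 mg/ml in 50% MeCN; RP-UPLC, 0–100% B over 2 min, 50 °C. Solubility = sample/control area ratio. Final pH recorded.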
# [1] = molecular target: T1, human NPY5 receptor (hY5R) (Homo sapiens, UniProt Q15761); test: HTRF cAMP Gi assay, hY5R
# T1 sequence (Q15761 1-445): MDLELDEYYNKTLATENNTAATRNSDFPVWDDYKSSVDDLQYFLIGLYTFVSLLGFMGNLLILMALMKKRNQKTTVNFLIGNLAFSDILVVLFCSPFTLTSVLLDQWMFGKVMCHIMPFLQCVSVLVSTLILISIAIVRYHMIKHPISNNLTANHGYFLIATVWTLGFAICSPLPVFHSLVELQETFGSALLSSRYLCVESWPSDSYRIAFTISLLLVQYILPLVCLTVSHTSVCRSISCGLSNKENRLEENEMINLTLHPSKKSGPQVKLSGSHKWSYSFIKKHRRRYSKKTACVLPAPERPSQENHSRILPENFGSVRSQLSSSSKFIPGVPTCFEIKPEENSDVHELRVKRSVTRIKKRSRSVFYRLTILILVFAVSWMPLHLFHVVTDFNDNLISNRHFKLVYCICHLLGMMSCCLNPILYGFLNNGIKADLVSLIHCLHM
# [2] = molecular target: T2, Human Neuropeptide Y2 Receptor (Homo sapiens, UniProt P49146); test: Radioligand binding competition assay (RLB); details: Table 3, 125I-PYY(1-36) competition; read-out: Ki
# T2 construct: purchased CHEMICON HTS066M
# T2 sequence (P49146 1-381): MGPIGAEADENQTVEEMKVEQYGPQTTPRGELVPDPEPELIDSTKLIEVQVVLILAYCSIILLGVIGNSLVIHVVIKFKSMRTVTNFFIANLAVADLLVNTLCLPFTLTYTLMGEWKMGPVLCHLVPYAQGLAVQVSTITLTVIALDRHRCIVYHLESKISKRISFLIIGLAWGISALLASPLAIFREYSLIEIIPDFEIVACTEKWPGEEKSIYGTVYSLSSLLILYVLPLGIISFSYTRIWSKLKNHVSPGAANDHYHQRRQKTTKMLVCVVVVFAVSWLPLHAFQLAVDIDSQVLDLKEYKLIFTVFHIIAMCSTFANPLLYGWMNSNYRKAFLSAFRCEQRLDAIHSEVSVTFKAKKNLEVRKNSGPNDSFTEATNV
# Procedure, shortened: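 Receptor membranes, 0.5 μg/well; buffer 50 mM HEPES/5 mM MgCl2/1 mM CaCl2/0.2% ovalbumin, pH 7.4; 2 h RT, shaking. GF/C filtration, cold HEPES/500 mM NaCl wash, scintillation count. IC50 by nonlinear regression.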
Sol6 (Solubility determination),Sol7 (Solubility determination),EC50 [1],Ki [2],Structure (SMILES)
9.4 mg/mL,9.8 mg/mL,> 5000 nM,4.16 nM,"CC(C)CC(=O)N[C@@H](C)C(=O)N1CCC[C@H]1C(=O)N[C@@H](CCC(=O)O)C(=O)N[C@@H](CCCCNC(=O)CCCCCNC(=O)CC[C@H](NC(=O)CCCCCCCCCCCCCCCCC(=O)O)C(=O)O)C(=O)N1CCC[C@H]1C(=O)N[C@@H](CCC(=O)O)C(=O)N[C@@H](CCC(=O)O)C(=O)N[C@@H](CC(=O)O)C(=O)N[C@@H](C)C(=O)N[C@@H](CO)C(=O)N1CCC[C@H]1C(=O)N[C@@H](CCC(=O)O)C(=O)N[C@@H](CCC(=O)O)C(=O)N[C@@H](CC(C)C)C(=O)N[C@@H](CCC(N)=O)C(=O)N[C@@H](CCC(N)=O)C(=O)N[C@@H](Cc1ccc(O)cc1)C(=O)N[C@@H](Cc1ccc(O)cc1)C(=O)N[C@H](C(=O)N[C@@H](CO)C(=O)N[C@@H](CC(C)C)C(=O)N[C@@H](CCCNC(=N)N)C(=O)N[C@@H](Cc1c[nH]cn1)C(=O)N[C@@H](Cc1ccc(O)cc1)C(=O)N[C@@H](Cc1ccc(O)cc1)C(=O)N[C@@H](Cc1c[nH]cn1)C(=O)N[C@@H](Cc1c[nH]c2ccccc12)C(=O)N[C@@H](CC(C)C)C(=O)N[C@H](C(=O)N[C@@H](CCCNC(=N)N)C(=O)N[C@@H](CCC(N)=O)C(=O)N[C@@H](CCCNC(=N)N)C(=O)N[C@@H](Cc1ccc(O)cc1)C(N)=O)[C@@H](C)O)C(C)C [Compound 12, N{alpha-4}-(3-methylbutanoyl)-N{epsilon-7}-(6-[(4S)-4-carboxy-4-(17-carboxyheptadecanamido)butanamido]hexanoyl)[4A,7K,9E,18Q,19Q,22V,28Y,29H,30W,31L]-hPYY(4-36)] (Isovaleryl-APEK([Ahx-γGlu-C18 diacid])PEEDASPEELQQYYVSLRHYYHWLTRQRY-NH2)"
9.3 mg/mL,9.2 mg/mL,> 5000 nM,3.98 nM,"CC[C@H](C)[C@H](NC(=O)[C@H](CCC(=O)O)NC(=O)[C@H](CCC(=O)O)NC(=O)[C@@H]1CCCN1C(=O)[C@H](CO)NC(=O)[C@H](C)NC(=O)[C@H](CC(=O)O)NC(=O)[C@H](CCC(=O)O)NC(=O)[C@H](CCC(=O)O)NC(=O)[C@@H]1CCCN1C(=O)[C@H](CCCCNC(=O)CCCCCNC(=O)CC[C@H](NC(=O)CCCCCCCCCCCCCCCCC(=O)O)C(=O)O)NC(=O)[C@H](CCC(=O)O)NC(=O)[C@@H]1CCCN1C(=O)[C@H](C)NC(=O)CC(C)C)C(=O)N[C@@H](CCC(N)=O)C(=O)N[C@@H](CCC(N)=O)C(=O)N[C@@H](Cc1ccc(O)cc1)C(=O)N[C@@H](Cc1ccc(O)cc1)C(=O)N[C@H](C(=O)N[C@@H](CO)C(=O)N[C@@H](CC(C)C)C(=O)N[C@@H](CCCNC(=N)N)C(=O)N[C@@H](Cc1c[nH]cn1)C(=O)N[C@@H](Cc1ccc(O)cc1)C(=O)N[C@@H](Cc1ccc(O)cc1)C(=O)N[C@@H](CC(N)=O)C(=O)N[C@@H](Cc1c[nH]c2ccccc12)C(=O)N[C@@H](CC(C)C)C(=O)N[C@H](C(=O)N[C@@H](CCCNC(=N)N)C(=O)N[C@@H](CCC(N)=O)C(=O)N[C@@H](CCCNC(=N)N)C(=O)N[C@@H](Cc1ccc(O)cc1)C(N)=O)[C@@H](C)O)C(C)C [Compound 15, N{alpha-4}-(3-methylbutanoyl)-N{epsilon-7}-(6-[(4S)-4-carboxy-4-(17-carboxyheptadecanamido)butanamido]hexanoyl)[4A,7K,9E,17I,18Q,19Q,22V,28Y,30W,31L]-hPYY(4-36)]"
0.0 mg/mL,9.0 mg/mL,–,0.74 nM,"CC(C)CC(=O)N[C@@H](C)C(=O)N1CCC[C@H]1C(=O)N[C@@H](CCC(=O)O)C(=O)N[C@@H](CCCCNC(=O)CCCCCNC(=O)CC[C@H](NC(=O)CCCCCCCCCCCCCCCCC(=O)O)C(=O)O)C(=O)N1CCC[C@H]1C(=O)N[C@@H](CCC(=O)O)C(=O)N[C@@H](C)C(=O)N1CCC[C@H]1C(=O)N[C@@H](C)C(=O)N[C@@H](CO)C(=O)N1CCC[C@H]1C(=O)N[C@@H](CCC(=O)O)C(=O)N[C@@H](CCC(=O)O)C(=O)N[C@@H](CC(C)C)C(=O)N[C@@H](CCC(N)=O)C(=O)N[C@@H](CCCNC(=N)N)C(=O)N[C@@H](Cc1ccc(O)cc1)C(=O)N[C@@H](Cc1ccc(O)cc1)C(=O)N[C@H](C(=O)N[C@@H](CO)C(=O)N[C@@H](CC(C)C)C(=O)N[C@@H](CCCNC(=N)N)C(=O)N[C@@H](Cc1c[nH]cn1)C(=O)N[C@@H](Cc1ccc(O)cc1)C(=O)N[C@@H](Cc1ccc(O)cc1)C(=O)N[C@@H](CC(N)=O)C(=O)N[C@@H](Cc1c[nH]c2ccccc12)C(=O)N[C@@H](CC(C)C)C(=O)N[C@H](C(=O)N[C@@H](CCCNC(=N)N)C(=O)N[C@@H](CCC(N)=O)C(=O)N[C@@H](CCCNC(=N)N)C(=O)N[C@@H](Cc1ccc(O)cc1)C(N)=O)[C@@H](C)O)C(C)C [Compound 192, N{alpha-4}-(3-methylbutanoyl)-N{epsilon-7}-(6-[(4S)-4-carboxy-4-(17-carboxyheptadecanamido)butanamido]hexanoyl)-[4A,7K,9E,10A,11P,18Q,22V,28Y,30W,31L]-hPYY(4-36)] (Isovaleryl-APEK([Ahx-γGlu-C18 diacid])PEAPASPEELQRYYVSLRHYYNWLTRQRY-NH2)"
>10.0 mg/mL,>10.0 mg/mL,–,1.38 nM,"CC[C@H](C)[C@H](NC(=O)[C@H](CCC(=O)O)NC(=O)[C@H](CCC(=O)O)NC(=O)[C@@H]1CCCN1C(=O)[C@H](CCC(=O)O)NC(=O)[C@H](C)NC(=O)[C@H](CC(=O)O)NC(=O)[C@H](C)NC(=O)[C@H](CCC(=O)O)NC(=O)[C@@H]1CCCN1C(=O)[C@H](CCCCNC(=O)CCCCCNC(=O)CC[C@H](NC(=O)CCCCCCCCCCCCCCCCC(=O)O)C(=O)O)NC(=O)[C@H](C)NC(=O)[C@@H]1CCCN1C(=O)[C@H](C)NC(=O)CC(C)C)C(=O)N[C@@H](CCC(N)=O)C(=O)N[C@@H](CCCNC(=N)N)C(=O)N[C@@H](Cc1ccc(O)cc1)C(=O)N[C@@H](Cc1ccc(O)cc1)C(=O)N[C@H](C(=O)N[C@@H](CO)C(=O)N[C@@H](CC(C)C)C(=O)N[C@@H](CCCNC(=N)N)C(=O)N[C@@H](Cc1c[nH]cn1)C(=O)N[C@@H](Cc1ccc(O)cc1)C(=O)N[C@@H](Cc1ccc(O)cc1)C(=O)N[C@@H](CC(N)=O)C(=O)N[C@@H](Cc1c[nH]c2ccccc12)C(=O)N[C@@H](CC(C)C)C(=O)N[C@H](C(=O)N[C@@H](CCCNC(=N)N)C(=O)N[C@@H](CCC(N)=O)C(=O)N[C@@H](CCCNC(=N)N)C(=O)N[C@@H](Cc1ccc(O)cc1)C(N)=O)[C@@H](C)O)C(C)C [Compound 198, N{alpha-4}-(3-methylbutanoyl)-N{epsilon-7}-(6-[(4S)-4-carboxy-4-(17-carboxyheptadecanamido)butanamido]hexanoyl)-[4A,6A,7K,9E,10A,13E,17I,18Q,22V,28Y,30W,31L]-hPYY(4-36)]"
9.0 mg/mL,9.1 mg/mL,–,2.87 nM,"CC(C)CC(=O)N[C@@H](C)C(=O)N1CCC[C@H]1C(=O)N[C@@H](C)C(=O)N[C@@H](CCCCNC(=O)CCCCCNC(=O)CC[C@H](NC(=O)CCCCCCCCCCCCCCCCC(=O)O)C(=O)O)C(=O)N1CCC[C@H]1C(=O)N[C@@H](CCC(=O)O)C(=O)N[C@@H](CCC(=O)O)C(=O)N[C@@H](CCC(=O)O)C(=O)N[C@@H](C)C(=O)N[C@@H](CO)C(=O)N1CCC[C@H]1C(=O)N[C@@H](CCC(=O)O)C(=O)N[C@@H](CCC(=O)O)C(=O)N[C@@H](CC(C)C)C(=O)N[C@@H](CCC(N)=O)C(=O)N[C@@H](CCCNC(=N)N)C(=O)N[C@@H](Cc1ccc(O)cc1)C(=O)N[C@@H](Cc1ccc(O)cc1)C(=O)N[C@H](C(=O)N[C@@H](CO)C(=O)N[C@@H](CC(C)C)C(=O)N[C@@H](CCCNC(=N)N)C(=O)N[C@@H](Cc1c[nH]cn1)C(=O)N[C@@H](Cc1ccc(O)cc1)C(=O)N[C@@H](Cc1ccc(O)cc1)C(=O)N[C@@H](CC(N)=O)C(=O)N[C@@H](Cc1c[nH]c2ccccc12)C(=O)N[C@@H](CC(C)C)C(=O)N[C@H](C(=O)N[C@@H](CCCNC(=N)N)C(=O)N[C@@H](CCC(N)=O)C(=O)N[C@@H](CCCNC(=N)N)C(=O)N[C@@H](Cc1ccc(O)cc1)C(N)=O)[C@@H](C)O)C(C)C [Compound 199, N{alpha-4}-(3-methylbutanoyl)-N{epsilon-7}-(6-[(4S)-4-carboxy-4-(17-carboxyheptadecanamido)butanamido]hexanoyl)-[4A,6A,7K,9E,11E,18Q,22V,28Y,30W,31L]-hPYY(4-36)]"
